From patent publication US10946023B2, “Therapeutically active compounds and their methods of use” (Agios Pharmaceuticals, Inc., priority 2013, dated 2021)

Tests used:
[1] = target: IDH1-R132 homodimer enzyme (R132H) (Homo sapiens (Human), UniProt O75874, R132H); assay: IDH1 R132H homodimer NADPH depletion assay (Table 4 column 3); format: biochemical
Protocol: (§1) The following describes the experimental procedures that can be used to obtain data on columns 3 and 6 of Table 4.
(§2) A test compound is prepared as 10 mM stock in DMSO and diluted to 50× final concentration in DMSO, for a 50 μl reaction mixture. IDH enzyme activity converting alpha-ketoglutarate to 2-hydroxyglutaric acid is measured using a NADPH depletion assay. In the assay the remaining cofactor is measured at the end of the reaction with the addition of a catalytic excess of diaphorase and resazurin, to generate a fluorescent signal in proportion to the amount of NADPH remaining. […] The reaction is started with the addition of 10 μl of Substrate Mix ([…], 5 mM alpha-ketoglutarate, in Assay Buffer) and the mixture is incubated for 90 minutes at room temperature.

[2] = target: IDH1 wt/IDH1 R132H heterodimer (Homo sapiens (Human), UniProt O75874, R132H); assay: IDH1 wt/R132H heterodimer NADPH depletion (diaphorase/resazurin) assay; format: biochemical; conditions: read-out: IDH1 wt/R132H NADPH/NADP IC50 not saturated
IDH1 wt/IDH1 R132H heterodimer, sequence (O75874 whole entry R132H): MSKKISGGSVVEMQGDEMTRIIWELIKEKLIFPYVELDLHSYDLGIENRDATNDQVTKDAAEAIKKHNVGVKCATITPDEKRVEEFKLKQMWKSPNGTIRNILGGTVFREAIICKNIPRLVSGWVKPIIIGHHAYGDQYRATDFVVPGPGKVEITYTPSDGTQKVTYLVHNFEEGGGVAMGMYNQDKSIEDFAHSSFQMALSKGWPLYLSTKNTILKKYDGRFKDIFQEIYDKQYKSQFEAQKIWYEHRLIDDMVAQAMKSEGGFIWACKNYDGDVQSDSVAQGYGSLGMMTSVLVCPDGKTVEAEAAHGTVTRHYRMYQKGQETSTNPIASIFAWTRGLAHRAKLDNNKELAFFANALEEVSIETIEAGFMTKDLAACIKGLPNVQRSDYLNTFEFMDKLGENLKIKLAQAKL
IDH1 wt/IDH1 R132H heterodimer, sequence (O75874 whole entry, stated change not applied): as the sequence (O75874 whole entry R132H) above, with H132R counted along it
Protocol: The following describes the experimental procedures that can be used to obtain data on columns 2 and 4 of Table 4 and column 2 of Table 5.
In the primary reaction, the reduction of α-KG acid to 2-HG is accompanied by a concomitant oxidation of NADPH to NADP. The amount of NADPH remaining at the end of the reaction time is measured in a secondary diaphorase/resazurin reaction in which the NADPH is consumed in a 1:1 molar ratio with the conversion of resazurin to the highly fluorescent resorufin.
The mixture of compound, enzyme, and cofactor is pre-incubated at room temperature for 1 hr prior to the addition of alpha-ketoglutarate. To perform the secondary reaction, 10 uL of 1× buffer containing 36 μg/ml diaphorase and […] resazurin is added to the primary reaction and incubated for a further 5 minutes at 25° C. […] Compounds or compound dilutions are prepared in 100% DMSO concentration and diluted 1:50 into the final reaction. […] IC50s are determined.
IDH1 or IDH2 wildtype (wt) and mutant heterodimers are expressed and purified by methods known in the art. […] Co-expression of IDH1wt-his and IDH1R132C-flag is carried out in sf9 insect cells. […] Cells are disrupted with 4 passes through an M-Y110 Micro fluidizer (Microfluidics) set to 500 psi, and then centrifuged at 22,000 rcf for 20 min at 4° C. […]

IDH1 R132C = IDH1 R132C (Homo sapiens (Human), UniProt O75874, R132C); assay: IDH1 R132C homodimer NADPH depletion assay (Table 4 column 6); format: biochemical
IDH1 R132C, sequence (O75874 whole entry R132C): as the sequence (O75874 whole entry R132H) above, with H132C counted along it
Protocol: as §1, §2
The concentration of NADPH and alpha-ketoglutarate in the Substrate Buffer is 20 μM and 1 mM, respectively.

HT1080 cells = assay: HT1080 cellular assay, 2-HG by LC-MS (IDH1 R132C); format: cell-based; conditions: Homo sapiens, HT-1080
Protocol: The following describes the experimental procedures that can be used to obtain data on column 5 of Table 4.
Cells (HT1080 or U87MG) are grown in T125 flasks in DMEM containing 10% FBS, 1× penicillin/streptomycin and 500 ug/mL G418 (present in U87MG cells only). They are harvested by trypsin and seeded into 96 well white bottom plates at a density of 5000 cell/well in 100 ul/well in DMEM with 10% FBS. No cells are placed in columns 1 and 12. Cells are incubated overnight at 37° C. in 5% CO2. The next day test compounds are made up at 2× the final concentration and 100 ul are added to each cell well. The final concentration of DMSO is 0.2% and the DMSO control wells are plated in row G. The plates are then placed in the incubator for 48 hours. At 48 hours, 100 ul of media is removed from each well and analyzed by LC-MS for 2-HG concentrations. The cell plate is placed back in the incubator for another 24 hours. At 72 hours post compound addition, 10 mL/plate of Promega Cell Titer Glo reagent is thawed and mixed. The cell plate is removed from the incubator and allowed to equilibrate to room temperature. Then 100 ul of Promega Cell Titer Glo reagent is added to each well of media. The cell plate is then placed on an orbital shaker for 10 minutes and then allowed to sit at room temperature for 20 minutes. The plate is then read for luminescence with an integration time of 500 ms.
HT1080 cells are maintained in RPMI containing 10% FBS, 1× penicillin/streptomycin. […] The next day compounds are prepared in 100% DMSO and then diluted in media for a final concentration of 0.2% DMSO. Media is removed from the cell plates and 200 μL of the compound dilutions are added to each well. […] The cell plates are then allowed to incubate another 24 hours.

IDH2 R140Q = IDH2 R140Q (Homo sapiens (Human), UniProt P48735, R140Q); assay: IDH2 R140Q cofactor depletion assay (Table 4 column 7); format: biochemical
IDH2 R140Q, sequence (P48735 40-452 R140Q): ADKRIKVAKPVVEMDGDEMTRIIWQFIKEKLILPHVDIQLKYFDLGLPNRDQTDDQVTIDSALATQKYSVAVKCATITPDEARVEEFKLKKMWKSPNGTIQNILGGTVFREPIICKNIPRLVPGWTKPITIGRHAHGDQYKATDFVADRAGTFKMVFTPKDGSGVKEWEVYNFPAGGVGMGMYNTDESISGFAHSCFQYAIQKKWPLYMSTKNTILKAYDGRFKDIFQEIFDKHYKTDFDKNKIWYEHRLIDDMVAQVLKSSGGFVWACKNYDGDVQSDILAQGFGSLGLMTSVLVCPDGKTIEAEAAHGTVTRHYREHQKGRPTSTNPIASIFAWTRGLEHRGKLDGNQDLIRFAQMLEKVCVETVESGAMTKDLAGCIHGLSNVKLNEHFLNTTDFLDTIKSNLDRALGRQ
From the text: The following describes the experimental procedures used to obtain data on column 7 of Table 4.
The reaction is terminated by the addition of a second enzyme, diaphorase, and a corresponding substrate, resazurin. Diaphorase reduces resazurin to the highly fluorescent resorufin with the concomitant oxidation of NADPH to NADP, both halting the IDH2 reaction by depleting the available cofactor pool and facilitating quantitation of the amount of cofactor remaining after a specific time period through quantitative production of an easily detected fluorophore.
The test compound is then incubated for one hour at room temperature with the enzyme; before starting the IDH2 reaction with the addition of 10 μl of substrate mix containing 4 μM NADPH and 1.6 mM α-KG in the buffer described above. After a further 16 hours of incubation at room temperature, the reaction is halted and the remaining NADPH measured through conversion of resazurin to resorufin by the addition of 25 μl Stop Mix (36 μg/ml diaphorase enzyme and 60 μM resazurin; in buffer).

[3] = tested on: U87MG pLVX-IDH2 R140Q-neo cells; assay: U87MG pLVX-IDH2 R140Q-neo cell based assay, 2-HG by LC-MS; conditions: Homo sapiens, U-87 MG

IDH1-R132 homodimer enzyme (R132H), sequence (O75874 whole entry R132H): as the sequence (O75874 whole entry R132H) above

Row | SMILES | IC50 (HT1080 cells) [nM] | further results
1 | Cc1cccc(-c2nc(NC3CCC(F)(F)CC3)nc(N[C@H](C)C3CC3)n2)n1 [Compound 50] |  | IC50 [1]: < 50 nM; IC50 [2]: < 50 nM; IC50 (IDH1 R132C): 50 to 100 nM
2 | N#CC1(c2cc(Nc3nc(N[C@H]4CCC(F)(F)C4)nc(-c4cccc(C(F)(F)F)n4)n3)ccn2)CC1 [Compound 133] | 100 to 1000 | 
3 | N#CC1(c2cc(Nc3nc(N[C@@H]4CCC(F)(F)C4)nc(-c4cccc(C(F)(F)F)n4)n3)ccn2)CC1 [Compound 137] | 50 to 100 | 
4 | FC1(F)CCC(Nc2nc(NC3CCC(F)(F)C3)nc(-c3cncc(C(F)(F)F)n3)n2)C1 (centres unmarked) [Compound 138] | < 50 | 
5 | N#CC1(c2cc(Nc3nc(NC4CCC(F)(F)C4)nc(-c4cccc(C(F)(F)F)n4)n3)ccn2)CC1 (centres unmarked) [Compound 151] | 50 to 100 | 
6 | FC1(F)CC[C@H](Nc2nc(Nc3ccnc(C(F)(F)F)c3)nc(-c3cccc(C(F)(F)F)n3)n2)C1 [Compound 158] | 100 to 1000 | 
7 | FC1(F)CC[C@@H](Nc2nc(Nc3ccnc(C(F)(F)F)c3)nc(-c3cccc(C(F)(F)F)n3)n2)C1 [Compound 172] | 50 to 100 | 
8 | FC1(F)CCC(Nc2nc(Nc3ccnc(C(F)(F)F)c3)nc(-n3ccc(C(F)(F)F)n3)n2)C1 (centres unmarked) [Compound 173] | 50 to 100 | 
9 | N#CC1(c2cc(Nc3nc(N[C@H]4CCC(F)(F)C4)nc(-n4ccc(C(F)(F)F)n4)n3)ccn2)CC1 [Compound 174] | 50 to 100 | 
10 | CC(Nc1nc(Nc2ccnc(C(F)(F)F)c2)nc(-n2ccc(C(F)(F)F)n2)n1)C(F)(F)F (centres unmarked) [Compound 177] | 50 to 100 | 
11 | FC1(F)CCC(Nc2nc(Nc3ccnc(C(F)(F)F)c3)nc(-c3cccc(C(F)(F)F)n3)n2)C1 (centres unmarked) [Compound 178] | 100 to 1000 | 
12 | N#CC1(c2cc(Nc3nc(NC4CCC(F)(F)C4)nc(-n4ccc(C(F)(F)F)n4)n3)ccn2)CC1 (centres unmarked) [Compound 185] | 50 to 100 | 
13 | FC1(F)CC(Nc2nc(Nc3ccnc(C(F)(F)F)c3)nc(-c3cccc(C(F)(F)F)n3)n2)C1 [Compound 190] | 100 to 1000 | 
14 | CC(C)(O)CNc1nc(Nc2ccnc(C(F)(F)F)c2)nc(-c2cccc(C(F)(F)F)n2)n1 [Compound 288] |  | IC50 (IDH2 R140Q): 100 to 1000 nM; IC50 [2]: 100 to 1000 nM; IC50 [3]: 100 to 1000 nM
15 | N#CC1(c2cc(Nc3nc(N[C@@H]4CCC(F)(F)C4)nc(-n4ccc(C(F)(F)F)n4)n3)ccn2)CC1 [Compound 350] | 50 to 100 | 
16 | FC1(F)CC[C@H](Nc2nc(Nc3ccnc(C(F)(F)F)c3)nc(-n3ccc(C(F)(F)F)n3)n2)C1 [Compound 393] | 100 to 1000 | 
17 | FC1(F)CC[C@@H](Nc2nc(N[C@H]3CCC(F)(F)C3)nc(-c3cncc(C(F)(F)F)n3)n2)C1 [Compound 399] | < 50 | 
18 | FC1(F)CC[C@H](Nc2nc(N[C@H]3CCC(F)(F)C3)nc(-c3cncc(C(F)(F)F)n3)n2)C1 [Compound 406] | < 50 | 
19 | FC1(F)CC[C@@H](Nc2nc(N[C@@H]3CCC(F)(F)C3)nc(-c3cncc(C(F)(F)F)n3)n2)C1 [Compound 410] | < 50 | 
